The target in experiment [1] is T1, COS-7/AMY3 (human calcitonin receptor (CTR) and RAMP3) (Homo sapiens, UniProt O60896+P30988).
T1 construct: expressed in transfected cells; host or cells: COS-7
The experiment is described as follows: Amylin Receptor cAMP Assay II. As to conditions: values marked **: Amylin Receptor cAMP Assay II; COS-7/AMY3 cells, cAMP dynamic 2 kit, 30 min; read-out: Amylin Receptor cAMP Stimulation Activity: EC50. In kind it is cell-based. In outline:
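Agonist-induced cAMP was quantified by HTRF ratio at 665/615 nm and expressed as % of the window from vehicle to MAX control. Stimulation lasted 30 min at 37 °C in HBSS/20 mM HEPES/0.5 mM IBMX/0.1% casein, using stable human CTR+RAMP3 (AMY3) COS-7 cells at 2000 per well.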

For experiment [2], the target named is T2, human calcitonin receptor (CTR) (Homo sapiens, UniProt P30988).
T2 construct: expressed in transfected cells; host or cells: COS-7 (COS7-human CTR Clone #2)
T2 sequence (P30988 25-474): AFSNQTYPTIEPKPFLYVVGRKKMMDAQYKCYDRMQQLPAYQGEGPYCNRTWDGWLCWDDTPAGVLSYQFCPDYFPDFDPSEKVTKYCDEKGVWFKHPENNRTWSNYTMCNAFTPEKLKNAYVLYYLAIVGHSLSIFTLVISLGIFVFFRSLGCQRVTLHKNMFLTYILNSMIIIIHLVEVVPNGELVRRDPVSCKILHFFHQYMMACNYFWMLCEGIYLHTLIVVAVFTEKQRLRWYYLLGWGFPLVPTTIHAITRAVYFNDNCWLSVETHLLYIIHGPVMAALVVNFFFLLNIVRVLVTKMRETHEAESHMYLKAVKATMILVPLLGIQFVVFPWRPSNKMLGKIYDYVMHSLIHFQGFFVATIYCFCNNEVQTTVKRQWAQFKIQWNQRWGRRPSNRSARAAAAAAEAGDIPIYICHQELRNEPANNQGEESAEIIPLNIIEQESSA
The experiment is described as follows: Calcitonin Receptor (CTR) cAMP Assay. In kind it is cell-based. To be noted: COS7-human CTR Clone #2 stable cell line, cAMP dynamic 2 kit, 30 min; read-out: Calcitonin Receptor cAMP Stimulation Activity: EC50. Put shortly: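 cAMP accumulation was measured by HTRF cAMP dynamic 2 read at 665/615 nm, 1 h at room temperature, with results scaled between vehicle and positive control. Before detection, COS7-human CTR stable cells were stimulated 30 min at 37 °C with compound (4-fold dilutions) in IBMX-containing HBSS/HEPES/casein buffer.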

A word on the EC50: it is the concentration giving half of the maximal effect.

T1 sequence (O60896 24-148, one chain of several): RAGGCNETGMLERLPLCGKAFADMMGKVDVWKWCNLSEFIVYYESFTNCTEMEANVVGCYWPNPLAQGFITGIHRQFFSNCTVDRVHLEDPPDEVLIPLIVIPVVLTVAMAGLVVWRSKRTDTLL

Consider `COc1cccc2c1CC[C@H]2Nc1nccc2cc(-c3c4c(nc(CCc5cccc(C(F)(F)F)c5)c3-c3n[nH]c(=O)o3)[C@@H]3CCCN3C4=O)sc12` [Compound 171, 5-((S)-4-(7-(((R)-4-methoxy-2,3-dihydro-1H-inden-1-yl)amino)thieno[2,3-c]pyridin-2-yl)-5-oxo-2-(3-(trifluoromethyl)phenethyl)-7,8,9,9a-tetrahydro-5H-pyrido[2,3-a]pyrrolizin-3-yl)-1,3,4-oxadiazol-2(3H)-one], for which the EC50 in experiment [1] is 71.4 nM; in experiment [2] it was 1.52 nM.
In the case of `COc1cccc2c1CC[C@H]2Nc1nccc2cc(-c3c4c(nc(CCc5ccc(F)cc5)c3-c3n[nH]c(=O)o3)[C@@H]3COCCN3C4=O)sc12` [Compound 235, (R)-2-(4-fluorophenethyl)-4-(7-(((R)-4-methoxy-2,3-dihydro-1H-inden-1-yl)amino)thieno[2,3-c]pyridin-2-yl)-3-(5-oxo-4,5-dihydro-1,3,4-oxadiazol-2-yl)-7,8,10,10a-tetrahydro-5H-pyrido[2′,3′:3,4]pyrrolo[2,1-c][1,4]oxazin-5-one], the EC50 was found to be 18.1 nM in experiment [1] and 0.236 nM in experiment [2].
Taken in the same sequence, the figures for `COc1cccc2c1CC[C@H]2Nc1nccc2cc(-c3c4c(nc(CCc5ccc(F)cc5)c3-c3n[nH]c(=O)o3)[C@@H]3CCCN3C4=O)sc12` [Compound 102, 5-((S)-2-(4-fluorophenethyl)-4-(7-(((R)-4-methoxy-2,3-dihydro-1H-inden-1-yl)amino)thieno[2,3-c]pyridin-2-yl)-5-oxo-7,8,9,9a-tetrahydro-5H-pyrido[2,3-a]pyrrolizin-3-yl)-1,3,4-oxadiazol-2(3H)-one] were 12.2 nM and 0.8 nM.
In the same order, the values of `COc1c(Cl)cc2c(c1F)CC[C@H]2Nc1nccc2cc(-c3c4c(nc(CCc5ccc(F)cc5)c3-c3n[nH]c(=O)o3)[C@@H]3CCCN3C4=O)sc12` [Compound 256, 5-[(9aS)-4-[7-[[(1R)-6-chloro-4-fluoro-5-methoxy-indan-1-yl]amino]thieno[2,3-c]pyridin-2-yl]-2-[2-(4-fluorophenyl)ethyl]-5-oxo-7,8,9,9a-tetrahydropyrido[2,3-a]pyrrolizin-3-yl]-3H-1,3,4-oxadiazol-2-one] are 12.8 nM and 0.33 nM.
For the molecule `COc1cccc2c1CC[C@H]2Nc1nccc2cc(-c3c(-c4n[nH]c(=O)o4)c(CCc4ccc(F)cc4)nc4c3S(=O)(=O)C[C@H]4C(C)C)sc12` [Compound 237, 5-((S)-5-(4-fluorophenethyl)-3-isopropyl-7-(7-(((R)-4-methoxy-2,3-dihydro-1H-inden-1-yl)amino)thieno[2,3-c]pyridin-2-yl)-1,1-dioxido-2,3-dihydrothieno[3,2-b]pyridin-6-yl)-1,3,4-oxadiazol-2(3H)-one], the EC50 in experiment [1] worked out at 18.5 nM; in experiment [2], 0.591 nM.
In the same order, the values of `N#Cc1ccc(Cn2ccc3cc(-c4c5c(nc(CCC67CCC(CC6)OC7)c4-c4n[nH]c(=O)o4)[C@@H]4CCCN4C5=O)cnc32)c(F)c1` [Compound 231, (S)-4-((5-(2-(2-(2-oxabicyclo[2.2.2]octan-4-yl)ethyl)-5-oxo-3-(5-oxo-4,5-dihydro-1,3,4-oxadiazol-2-yl)-7,8,9,9a-tetrahydro-5H-pyrido[2,3-a]pyrrolizin-4-yl)-1H-pyrrolo[2,3-b]pyridin-1-yl)methyl)-3-fluorobenzonitrile] are 15300 nM and 171 nM.
Taken in the same sequence, the figures for `O=c1cc(-c2c(CCC3CCOCC3)nc3c(c2-c2cc4ccnc(N[C@@H]5CCc6ncccc65)c4s2)S(=O)(=O)N2CCC[C@@H]32)o[nH]1` [Compound 198, 5-[(2S)-9-[7-[[(5R)-6,7-dihydro-5H-cyclopenta[b]pyridin-5-yl]amino]thieno[2,3-c]pyridin-2-yl]-7,7-dioxo-11-(2-tetrahydropyran-4-ylethyl)-7thia-6,12-diazatricyclo[6.4.0.02,6]dodeca-1(12),8,10-trien-10-yl]isoxazol-3-one] were 1000 nM and 19.2 nM.
Take `O=C1c2c(nc(CCc3ccc(F)cc3)c(-c3noc(=O)[nH]3)c2-c2ccc3c(NCc4ccc(F)c(F)c4)nccc3c2)[C@@H]2CCCN12` [Compound 111]: the EC50 in experiment [1] was determined as 401 nM; in experiment [2] it was 205 nM.
In the same order, the values of `COc1cccc2c1CC(F)(F)[C@@H]2Nc1nccc2cc(-c3c4c(nc(CCc5ccc(F)cc5)c3-c3n[nH]c(=O)o3)[C@@H]3CCCN3C4=O)sc12` [Compound 251, 5-((S)-4-(7-(((R)-2,2-difluoro-4-methoxy-2,3-dihydro-1H-inden-1-yl)amino)thieno[2,3-c]pyridin-2-yl)-2-(4-fluorophenethyl)-5-oxo-7,8,9,9a-tetrahydro-5H-pyrido[2,3-a]pyrrolizin-3-yl)-1,3,4-oxadiazol-2(3H)-one] are 82.8 nM and 7.28 nM.
Taken in the same sequence, the figures for `COc1c(F)ccc2c1CC(F)(F)[C@H]2Nc1nc(C)cc2cc(-c3c4c(nc(CCc5ccc(F)cc5)c3-c3n[nH]c(=O)o3)C35CC(CN3C4=O)C5)sc12` [Compound 296, (S)-5-(2-(4-fluorophenethyl)-4-(5-methyl-7-((2,2,5-trifluoro-4-methoxy-2,3-dihydro-1H-inden-1-yl)amino)thieno[2,3-c]pyridin-2-yl)-5-oxo-8,9-dihydro-5H,7H-8,9a-methanopyrido[2,3-a]pyrrolizin-3-yl)-1,3,4-oxadiazol-2(3H)-one] were 0.272 nM and 0.0164 nM.
Taken in the same sequence, the figures for `O=C1c2c(nc(CCc3ccc(F)cc3)c(-c3n[nH]c(=O)o3)c2-c2cc3ccnc(N[C@@H]4CCc5nc(C(F)(F)F)ccc54)c3s2)[C@@H]2CCCN12` [Compound 247, 5-((S)-2-(4-fluorophenethyl)-5-oxo-4-(7-(((R)-2-(trifluoromethyl)-6,7-dihydro-5H-cyclopenta[b]pyridin-5-yl)amino)thieno[2,3-c]pyridin-2-yl)-7,8,9,9a-tetrahydro-5H-pyrido[2,3-a]pyrrolizin-3-yl)-1,3,4-oxadiazol-2(3H)-one] were 2410 nM and 21.1 nM.
With `O=C1c2c(nc(CCc3ccc(F)cc3)c(-c3n[nH]c(=O)o3)c2-c2cc3ccnc(N[C@@H]4CCc5c(F)cc(F)cc54)c3s2)C23CC(CN12)C3` [Compound 279, (R)-5-(4-(7-((4,6-difluoro-2,3-dihydro-1H-inden-1-yl)amino)thieno[2,3-c]pyridin-2-yl)-2-(4-fluorophenethyl)-5-oxo-5,7,8,9-tetrahydro-8,9a-methanopyrido[2,3-a]pyrrolizin-3-yl)-1,3,4-oxadiazol-2(3H)-one], the EC50 in experiment [1] came to 0.318 nM; in experiment [2], 0.051 nM.
Taken in the same sequence, the figures for `COc1c(F)ccc2c1CC[C@H]2Nc1cccc2nc(-c3c4c(nc(CCc5ccc(F)cc5)c3-c3n[nH]c(=O)o3)C35CC(CN3C4=O)C5)sc12` [Compound 267, (R)-5-(4-(7-((5-fluoro-4-methoxy-2,3-dihydro-1H-inden-1-yl)amino)benzo[d]thiazol-2-yl)-2-(4-fluorophenethyl)-5-oxo-8,9-dihydro-5H,7H-8,9a-methanopyrido[2,3-a]pyrrolizin-3-yl)-1,3,4-oxadiazol-2(3H)-one] were 14.6 nM and 0.738 nM.
For the molecule `COc1cccc2c1CC[C@H]2Nc1nccc2cc(-c3c4c(nc(C(C)C)c3-c3n[nH]c(=O)o3)[C@@H]3CCCN3C4=O)sc12` [Compound 185, 5-((S)-2-isopropyl-4-(7-(((R)-4-methoxy-2,3-dihydro-1H-inden-1-yl)amino)thieno[2,3-c]pyridin-2-yl)-5-oxo-7,8,9,9a-tetrahydro-5H-pyrido[2,3-a]pyrrolizin-3-yl)-1,3,4-oxadiazol-2(3H)-one], the EC50 turned out to be 231 nM in experiment [1] and 15.2 nM in experiment [2].
In the same order, the values of `COc1c(F)ccc2c1CC[C@H]2Nc1nc(C(F)F)cc2cc(-c3c4c(nc(CCc5ccc(F)cc5)c3-c3n[nH]c(=O)o3)C35CC(CN3C4=O)C5)sc12` [Compound 287, (R)-5-(4-(5-(difluoromethyl)-7-((5-fluoro-4-methoxy-2,3-dihydro-1H-inden-1-yl)amino)thieno[2,3-c]pyridin-2-yl)-2-(4-fluorophenethyl)-5-oxo-8,9-dihydro-5H,7H-8,9a-methanopyrido[2,3-a]pyrrolizin-3-yl)-1,3,4-oxadiazol-2(3H)-one] are 0.35 nM and 0.0178 nM.
Taken in the same sequence, the figures for `C[C@@H](Nc1nccc2cc(-c3c4c(nc(CCc5ccc(F)cc5)c3-c3n[nH]c(=O)o3)[C@@H]3CCCN3C4=O)sc12)c1ccc(F)c(F)c1` [Compound 227, 5-((S)-4-(7-(((R)-1-(3,4-difluorophenyl)ethyl)amino)thieno[2,3-c]pyridin-2-yl)-2-(4-fluorophenethyl)-5-oxo-7,8,9,9a-tetrahydro-5H-pyrido[2,3-a]pyrrolizin-3-yl)-1,3,4-oxadiazol-2(3H)-one] were 33.3 nM and 1.67 nM.
